# Results reported in publication PMC10866072, “Design, synthesis, molecular modelling and biological evaluation of novel 6-amino-5-cyano-2-thiopyrimidine derivatives as potent anticancer agents against leukemia and apoptotic inducers” (Journal of Enzyme Inhibition and Medicinal Chemistry, 2024).
# What was measured:
# SK-MEL-2 = assay type: cell-based
# TK-10 = assay type: cell-based
# RXF 393 = assay type: cell-based; conditions: five-dose
# OVCAR-8 = assay type: cell-based
# leukaemia SR cells = assay: Annexin V-FITC/PI apoptosis and necrosis assay; assay type: cell-based, human; conditions: 48 h treatment
# Method: (§1) For more assessment of compound 1c, apoptosis assay was performed using annexin V-FITC Apoptosis detection kit (Biovision, cat#: K101-25) followed by flow cytometric analysis[92]^,[93]. Briefly, HL60 and leukaemia SR cells were cultured under optimum conditions followed by compound I c treatment for 48 h. then, washed in PBS, centrifuged, and resuspended in 500 µl of 1 x binding buffer. Moreover, 5 µl of annexin V-FITC, and 5 µl of propidium iodide were added and incubated in dark for 5 min. Finally, apoptotic cells were detected using flow cytometer as well as PI staining by emission signal detector. FACS Calibur flow cytometer (Becton Dickinson Biosciences) was used to analyse the cells’ apoptosis.
# HL60 cells = assay: Annexin V-FITC/PI apoptosis and necrosis assay; assay type: cell-based, human; conditions: HL60, 48 h treatment
# Method: as §1
# 786-0 = assay type: cell-based
# M14 = assay type: cell-based
# [1] = test system: Non-small cell lung cancer cell lines; assay: NCI-60 five-dose, subpanel
# Excerpt: Furthermore, the average sensitivity of all cell lines to the compound is termed as the full panel mean graph midpoints (MG-MID). The complete panel mean graph midpoints refers to the average sensitivity of all cell lines to the chemical (MG-MID). A measure of a compound’s selectivity for a given cell line is the ratio created by dividing the full panel mean graph midpoints (MG-MID) concentration by the individual subpanel MG-MID concentrations (obtained as the average sensitivity of all the cell lines in a given subpanel to the test compound).
# (§2) Assessment of selectivity of a compound depends on the ratio obtained by dividing the full panel MID ^a by their individual subpanel MID ^b (µM) where MID^a is the average sensitivity of all cell lines towards the test agent (µM).
# UACC-257 = assay type: cell-based
# BT-549 = assay type: cell-based
# SW-620 = assay type: cell-based
# Renal cancer cell lines = assay: NCI-60 five-dose, subpanel
# Excerpt: A measure of a compound’s selectivity for a given cell line is the ratio created by dividing the full panel mean graph midpoints (MG-MID) concentration by the individual subpanel MG-MID concentrations (obtained as the average sensitivity of all the cell lines in a given subpanel to the test compound).
# as §2
# U251 = assay type: cell-based
# MALME-3M = assay type: cell-based
# SNB-75 = assay type: cell-based
# MDA-MB-468 = assay type: cell-based
# HCC-2998 = assay type: cell-based
# K-562 = assay type: cell-based
# MDA-MB-231/ATCC = assay type: cell-based
# DU-145 = assay type: cell-based
# SK-OV-3 = assay type: cell-based
# HCT-116 = assay type: cell-based
# HT29 = assay type: cell-based
# LOX IMVI = assay type: cell-based
# PI3Kβ = target: T1, PI3Kβ (Homo sapiens, UniProt P42338); assay: PI3 Kinase Activity/Inhibitor Assay Kit; assay type: biochemical; conditions: mean of two independent replicates ± SD
# T1 construct: purchased Millipore Corporation 17-493 (assay kit)
# Method: In vitro PI3 kinases inhibitory activity assay
# All buffers, working standards and samples were prepared.
# A total of 5 μl/well 5X kinase reaction buffer was added following the addition of the substrate, then distilled water was added to fill up to 25 μl. After incubation for 1 h at room temperature, 25 μl of biotinylated PIP3/EDTA working solution was added to all wells except the buffer control. Instead, 25 μl tris-buffered saline (TBS) was added to the buffer control wells. A general receptor phosphoinsitides -1 working solution was added to all wells then, was incubated for 1 h at room temperature. After incubation, all wells were washed with 200 μl 1X TBS -Tween followed by addition of 50 μl (horseradish peroxide as econjugated streptavidin) SA -HRP then were incubated for 1 h at room temperature. All wells were washed using 100 μl 1X TBS -Tween and TBS followed by addition of 100 μl of substrate 3,3’,5,5’-tetramethylbenzidine and kept in dark for 5–20 min.
# OVCAR-4 = assay type: cell-based
# [2] = Homo sapiens, one dose 10^-5 M, 48 h
# [3] = Homo sapiens, five-dose, read-out: LC50 (the source's name)
# [4] = Homo sapiens, read-out: GI50 Subpanel MID^b
# [5] = Homo sapiens, one dose 10^-5 M, 48 h, read-out: % growth
# T1 sequence (P42338 whole entry, species assumed): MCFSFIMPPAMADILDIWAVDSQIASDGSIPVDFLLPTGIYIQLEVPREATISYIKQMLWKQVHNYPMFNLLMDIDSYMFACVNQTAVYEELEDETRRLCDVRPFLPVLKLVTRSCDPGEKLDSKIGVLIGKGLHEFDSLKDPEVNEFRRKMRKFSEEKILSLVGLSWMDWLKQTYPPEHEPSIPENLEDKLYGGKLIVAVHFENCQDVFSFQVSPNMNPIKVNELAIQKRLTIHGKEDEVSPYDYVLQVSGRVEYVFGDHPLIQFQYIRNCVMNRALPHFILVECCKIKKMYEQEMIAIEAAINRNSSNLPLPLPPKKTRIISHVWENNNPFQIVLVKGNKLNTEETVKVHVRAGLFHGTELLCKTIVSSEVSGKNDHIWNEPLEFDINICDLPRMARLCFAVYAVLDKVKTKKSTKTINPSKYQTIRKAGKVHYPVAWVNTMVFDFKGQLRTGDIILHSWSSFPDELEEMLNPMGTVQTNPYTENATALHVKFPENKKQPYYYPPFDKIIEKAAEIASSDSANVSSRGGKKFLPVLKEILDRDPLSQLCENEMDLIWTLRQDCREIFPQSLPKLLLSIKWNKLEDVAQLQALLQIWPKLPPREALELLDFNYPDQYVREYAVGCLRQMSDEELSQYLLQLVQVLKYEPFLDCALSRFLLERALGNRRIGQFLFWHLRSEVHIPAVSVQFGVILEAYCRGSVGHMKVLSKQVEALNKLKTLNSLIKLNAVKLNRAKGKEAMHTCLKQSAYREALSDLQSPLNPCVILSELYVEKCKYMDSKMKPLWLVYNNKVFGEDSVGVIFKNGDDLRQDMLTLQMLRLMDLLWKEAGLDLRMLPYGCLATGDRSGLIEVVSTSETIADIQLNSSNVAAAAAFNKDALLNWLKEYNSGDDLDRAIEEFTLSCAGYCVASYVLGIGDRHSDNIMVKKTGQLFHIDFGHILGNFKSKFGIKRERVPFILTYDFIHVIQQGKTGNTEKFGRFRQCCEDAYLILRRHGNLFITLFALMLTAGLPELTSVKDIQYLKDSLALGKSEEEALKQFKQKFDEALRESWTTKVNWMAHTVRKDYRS
# T1 sequence (P27986 whole entry partner, species assumed): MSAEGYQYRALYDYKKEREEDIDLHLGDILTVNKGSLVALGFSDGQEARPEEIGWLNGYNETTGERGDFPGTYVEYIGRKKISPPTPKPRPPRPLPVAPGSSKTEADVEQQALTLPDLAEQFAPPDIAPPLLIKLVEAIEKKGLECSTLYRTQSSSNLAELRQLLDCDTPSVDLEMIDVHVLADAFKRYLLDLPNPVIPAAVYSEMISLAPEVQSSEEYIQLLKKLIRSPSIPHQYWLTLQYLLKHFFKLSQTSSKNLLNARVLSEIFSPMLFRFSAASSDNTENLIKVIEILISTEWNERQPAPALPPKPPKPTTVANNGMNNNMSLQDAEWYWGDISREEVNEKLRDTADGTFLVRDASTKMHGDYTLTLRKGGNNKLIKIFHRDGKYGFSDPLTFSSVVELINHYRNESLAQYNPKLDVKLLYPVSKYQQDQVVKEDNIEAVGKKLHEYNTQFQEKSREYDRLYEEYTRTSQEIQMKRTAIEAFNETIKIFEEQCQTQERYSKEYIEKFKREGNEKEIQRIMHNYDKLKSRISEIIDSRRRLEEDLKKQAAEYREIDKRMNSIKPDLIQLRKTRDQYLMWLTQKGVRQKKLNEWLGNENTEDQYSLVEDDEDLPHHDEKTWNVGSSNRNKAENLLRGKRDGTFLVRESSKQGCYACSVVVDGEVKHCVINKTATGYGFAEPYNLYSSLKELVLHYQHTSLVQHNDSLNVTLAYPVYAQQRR
structure (smiles),measurement,setting,value
"N#Cc1c(N)nc(S)nc1-c1ccc(Cl)cc1Cl [Compound 1c, 4-Amino-6–(2,4-dichlorophenyl)-2-mercaptopyrimidine-5-carbonitrile]",GI50,"SK-MEL-2; Homo sapiens, five-dose",17.5 µM
same,LC50,"SK-MEL-2; Homo sapiens, five-dose",66.8 µM
same,% growth at 10 µM,SK-MEL-2; [2],98.6%
same,TGI,SK-MEL-2; five-dose,34.20 µM
same,GI50,"TK-10; Homo sapiens, five-dose",21.5 µM
same,LC50 (50% lethal concentration),"TK-10; Homo sapiens, five-dose",> 100 µM
same,% cell growth at 10 µM,TK-10; [2],114%
same,TGI,TK-10; five-dose,50.20 µM
same,GI50,RXF 393; Homo sapiens,12.7 µM
same,CC50,"RXF 393; Homo sapiens, read-out: LC50 (the source's name)",52.2 µM
same,TGI,RXF 393,25.70 µM
same,GI50,"OVCAR-8; Homo sapiens, five-dose",21.8 µM
same,CC50,OVCAR-8; [3],> 100 µM
same,% growth of cells at 10 µM,OVCAR-8; [2],5.74%
same,TGI,OVCAR-8; five-dose,74.70 µM
same,early apoptosis,leukaemia SR cells,14.97%
same,late apoptosis,leukaemia SR cells,23.02%
same,necrosis percentage,leukaemia SR cells,4.72%
same,early apoptosis,HL60 cells,23.79%
same,late apoptosis,HL60 cells,9.89%
same,necrosis percentage,HL60 cells,3.41%
same,GI50,"786-0; Homo sapiens, five-dose",17.5 µM
same,CC50,786-0; [3],99.1 µM
same,% growth at 10 µM,786-0; [2],67%
same,TGI,786-0; five-dose,41.60 µM
same,GI50,"M14; Homo sapiens, five-dose",2.42 µM
same,CC50,M14; [3],93.7 µM
same,% growth at 10 µM,M14; [2],49.8%
same,TGI,M14; five-dose,28.00 µM
same,GI50,[1]; [4],18.1 µM
same,"Selectivity ratio (full panel MID^a / subpanel MID^b, GI50 level)",[1]; non-small cell lung cancer,0.7
same,GI50,"UACC-257; Homo sapiens, five-dose",14.7 µM
same,CC50,UACC-257; [3],67.2 µM
same,percent cell growth at 10 µM,UACC-257; [2],77.7%
same,TGI,UACC-257; five-dose,31.50 µM
same,GI50,"BT-549; Homo sapiens, five-dose",14.9 µM
same,CC50,BT-549; [3],62.7 µM
same,% cell growth at 10 µM,BT-549; [2],42.1%
same,TGI,BT-549; five-dose,30.50 µM
same,GI50,"SW-620; Homo sapiens, five-dose",12 µM
same,LC50,"SW-620; Homo sapiens, five-dose",78.6 µM
same,% growth at 10 µM,SW-620; [2],45.7%
same,TGI,SW-620; five-dose,30.70 µM
same,GI50,Renal cancer cell lines; [4],14.2 µM
same,"Selectivity ratio (full panel MID^a / subpanel MID^b, GI50 level)",Renal cancer cell lines; renal cancer,0.9
same,GI50,"U251; Homo sapiens, U-251, five-dose",13.4 µM
same,CC50,"U251; Homo sapiens, U-251, five-dose, read-out: LC50 (the source's name)",68.9 µM
same,% growth at 10 µM,"U251; Homo sapiens, U-251, one dose 10^-5 M, 48 h",38.8%
same,TGI,U251; five-dose,30.40 µM
same,GI50,"MALME-3M; Homo sapiens, five-dose",15.3 µM
same,CC50,MALME-3M; [3],69.7 µM
same,% growth at 10 µM,MALME-3M; [2],4.96%
same,TGI,MALME-3M; five-dose,32.70 µM
same,GI50,"SNB-75; Homo sapiens, five-dose",4.9 µM
same,LC50,"SNB-75; Homo sapiens, five-dose",79.9 µM
same,% growth at 10 µM,SNB-75; [2],36.5%
same,TGI,SNB-75; five-dose,25.50 µM
same,GI50,"MDA-MB-468; Homo sapiens, five-dose",11.4 µM
same,CC50,MDA-MB-468; [3],55.7 µM
same,percent cell growth at 10 µM,MDA-MB-468; [2],35%
same,TGI,MDA-MB-468; five-dose,25.20 µM
same,GI50,"HCC-2998; Homo sapiens, five-dose",13 µM
same,CC50,HCC-2998; [3],51.5 µM
same,% growth at 10 µM,HCC-2998; [2],83.3%
same,TGI,HCC-2998; five-dose,25.90 µM
same,GI50,"K-562; Homo sapiens, K562, five-dose",0.14 µM
same,CC50,"K-562; Homo sapiens, K562, five-dose, read-out: LC50 (the source's name)",> 100 µM
same,% growth at 10 µM,"K-562; Homo sapiens, K562, one dose 10^-5 M, 48 h",36.9%
same,TGI,K-562; five-dose,>100 µM
same,GI50,"MDA-MB-231/ATCC; Homo sapiens, five-dose",13.1 µM
same,LC50,"MDA-MB-231/ATCC; Homo sapiens, five-dose",58.1 µM
same,% growth at 10 µM,MDA-MB-231/ATCC; [2],51.9%
same,TGI,MDA-MB-231/ATCC; five-dose,27.60 µM
same,GI50,"DU-145; Homo sapiens, five-dose",14.9 µM
same,LC50,"DU-145; Homo sapiens, five-dose",57.4 µM
same,% growth at 10 µM,DU-145; [2],51.3%
same,TGI,DU-145; five-dose,29.20 µM
same,GI50,"SK-OV-3; Homo sapiens, five-dose",26.3 µM
same,LC50,"SK-OV-3; Homo sapiens, five-dose",> 100 µM
same,% growth at 10 µM,SK-OV-3; [2],126%
same,TGI,SK-OV-3; five-dose,62.60 µM
same,GI50,"HCT-116; Homo sapiens, five-dose",0.06 µM
same,CC50,HCT-116; [3],63.6 µM
same,activity at 10 µM,HCT-116; [5],-18.8%
same,TGI,HCT-116; five-dose,17.90 µM
same,% growth,"HCT-116; one dose 10^-5 M, 48 h",-18.77%
same,GI50,"HT29; Homo sapiens, HT-29, five-dose",13.8 µM
same,CC50,"HT29; Homo sapiens, HT-29, five-dose, read-out: LC50 (the source's name)",68.9 µM
same,% growth at 10 µM,"HT29; Homo sapiens, HT-29, one dose 10^-5 M, 48 h",24.7%
same,TGI,HT29; five-dose,30.80 µM
same,GI50,"LOX IMVI; Homo sapiens, five-dose",1.1 µM
same,CC50,LOX IMVI; [3],40 µM
same,activity at 10 µM,LOX IMVI; [5],-49.2%
same,TGI,LOX IMVI; five-dose,15.10 µM
same,% growth,"LOX IMVI; one dose 10^-5 M, 48 h",-49.21%
same,IC50,PI3Kβ,0.55 ± 0.002 µM
same,GI50,"OVCAR-4; Homo sapiens, five-dose",32 µM
same,CC50,OVCAR-4; [3],> 100 µM
same,% growth at 10 µM,OVCAR-4; [2],81.2%
same,TGI,OVCAR-4; five-dose,>100 µM
